Test results as given in patent US4202975A, “Isoxazolo[3,4-d]pyrimidines” (Takeda Chemical Industries, Ltd., priority 1976, dated 1980).

Legend:
Type in all cases: in vivo
Carrageenin edema = experiment: Antiinflammatory action (rat, Carrageenin edema); conditions: 6 rats
Description: Antiinflammatory action
(Rat, Carrageenin edema)

phenylquinone-writhing = experiment: Analgesic action (mouse, phenylquinone-writhing test); conditions: 10 mice
Description: |(mouse, phenylquinone-writhing test)

Mouse = experiment: Acute toxicity (mouse, oral, mortality); conditions: 500 mg/kg oral; observed for 7 days after dosing, mortality after 8 days
Description: The acute toxicity data for some representative isoxazolo[3,4-d]pyrimidines(I) are given below in Table 3.
(Mouse, observed for 7 days after dosing, mortality

[1] = 12.5 mg/kg oral, first experiment, control 0.543 ± 0.032
[2] = 25 mg/kg oral, first experiment, control 0.543 ± 0.032
[3] = 25 mg/kg oral, first experiment, control 12.7 ± 2.5
[4] = 25 mg/kg oral, second experiment, control 17.3 ± 2.6
[5] = 50 mg/kg oral, first experiment, control 12.7 ± 2.5
[6] = 50 mg/kg oral, second experiment, control 17.3 ± 2.6
[7] = 6.25 mg/kg oral, second experiment, control 0.512 ± 0.017
[8] = 12.5 mg/kg oral, second experiment, control 0.512 ± 0.017
[9] = 12.5 mg/kg oral, second experiment, control 17.3 ± 2.6
[10] = 25 mg/kg oral, third experiment, control 13.7 ± 1.2

| Compound | % Suppression (phenylquinone-writhing; [3]) [%] | Average number of writhings & standard error (phenylquinone-writhing; [3]) | % Suppression (phenylquinone-writhing; [4]) [%] | Average number of writhings & standard error (phenylquinone-writhing; [4]) | % Suppression (phenylquinone-writhing; [5]) [%] | Average number of writhings & standard error (phenylquinone-writhing; [5]) | Mortality (Mouse) | also measured |
| --- | --- | --- | --- | --- | --- | --- | --- | --- |
| Cc1onc2c1c(=O)n(C)c(=O)n2C [Ia, 3,5,7-Trimethyl-5H,7H-isoxazolo[3,4-d]pyrimidine-4,6-dione] | 54.3 | 5.8 ± 2.4 | 67.1 | 5.7 ± 1.5 | 55.9 | 5.6 ± 2.3 | 1/5 | % Suppression (Carrageenin edema; [1]): 21.4%; Volume of edema & standard error (Carrageenin edema; [1]): 0.427 ± 0.030 mL; % Suppression (Carrageenin edema; [2]): 35.5%; Volume of edema & standard error (Carrageenin edema; [2]): 0.350 ± 0.061 mL; % Suppression (phenylquinone-writhing; [6]): 93.1%; Average number of writhings & standard error (phenylquinone-writhing; [6]): 1.2 ± 0.5 |
| COc1ccc2c3c1O[C@H]1[C@@H](O)C=C[C@H]4[C@@H](C2)N(C)CC[C@@]341 [Codeine phosphate, reference compound] | 72.4 | 3.5 ± 1.2 | – | – | – | – | – | – |
| Cn1c(=O)c2conc2n(C)c1=O [Ib, 5,7-Dimethyl-5H,7H-isoxazolo[3,4-d]pyrimidine-4,6-dione] | 63.8 | 4.6 ± 1.2 | 77.5 | 3.9 ± 1.0 | 92.1 | 1.0 ± 0.8 | 1/5 | % Suppression (Carrageenin edema; [7]): 21.9%; Volume of edema & standard error (Carrageenin edema; [7]): 0.400 ± 0.037 mL; % Suppression (Carrageenin edema; [8]): 32.0%; Volume of edema & standard error (Carrageenin edema; [8]): 0.348 ± 0.014 mL; % Suppression (phenylquinone-writhing; [9]): 54.9%; Average number of writhings & standard error (phenylquinone-writhing; [9]): 7.8 ± 1.9 |
| CCn1c(=O)c2conc2n(CC)c1=O [Ic] | – | – | – | – | – | – | – | % Suppression (phenylquinone-writhing; [10]): 47.4%; Average number of writhings & standard error (phenylquinone-writhing; [10]): 7.2 ± 1.5 |
